In test [1] the target is human PCSK9 / human LDLR EGFa domain interaction (Homo sapiens (Human), UniProt Q8NBP7). The experiment in a line: TR-FRET assay of inhibition of the PCSK9-LDLR protein-protein interaction. Format: binding. Particulars: TR-FRET, 20 nM human PCSK9, 20 nM human LDLR EGFa domain, 2 hours room temperature; read-out: IC50. In outline: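 Biotinylated PCSK9 (20 nM) and His-tagged LDLR EGFa domain (20 nM) were incubated 2 h at room temperature with 5 nM Ulight-streptavidin and 5 nM Eu-anti-His in HEPES/NaCl/CaCl2 buffer with 0.01% BSA and 0.01% P20. TR-FRET was read; half-maximal inhibitory concentrations came from 4-parameter dose-response fits.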
(In TR-FRET formats the signal depends on donor and acceptor labels being close together.)

Another test has as its target PCSK9 (Homo sapiens (Human), UniProt Q8NBP7). The experiment in a line: PCSK9 Alexa FRET Standard assay (displacement of AlexaFluor647 tagged cyclic peptide Reagent A). Particulars: PCSK9 Alexa FRET Standard assay, 0.5 nM PCSK9, 20 nM AF cyclic peptide Reagent A; read-out: IC50. Format: binding. In outline:
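TR-FRET displacement: 0.5 nM biotinylated PCSK9 with 1.25 nM Strep-Eu and 20 nM AlexaFluor-tagged cyclic peptide (final) in 50 mM HEPES pH 7.4, 0.15 M NaCl, 5 mM CaCl2, 0.01% BSA, 0.01% P20, ≥2 h at room temperature. IC50 from sigmoidal fit, converted to Ki via peptide KD; falling Eu counts flagged false positives.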

The IC50 is the concentration that inhibits the measured activity by half.

Starred links: 1 amine or outer side, 2 acyl side, 3 side chain; linkers in the order of their positions; H or OH if unused. Positions of bridges follow the written chain, without caps; N, C: chain ends. Non-standard residues stand in square brackets, D forms with d. Residues, ends and D or L forms follow the SMILES beside them. Phe(3-CH2NH2) = O=C([C@H](Cc1cccc(CN[*:3])c1)N[*:1])[*:2]; X43 = O=C(CC[S+]([O-])Cc1cc(F)cc(CSCCN[*:1])c1)[*:2]; X25 = O=C([C@H](Cc1cccc(OCC=[*:3])c1)N[*:1])[*:2]; Phe(4-COOH) = N[C@@H](Cc1ccc(C(=O)O)cc1)C(=O)O; Trp(5-F) = N[C@@H](Cc1c[nH]c2ccc(F)cc12)C(=O)O; Asp(3,3-Me2) = CC(C)(C(=O)O)[C@H](N)C(=O)O; X42 = CN([C@@H](CCC=[*:3])C(=O)[*:2])[*:1]; X9 = CS[C@H]1C[C@@H](C(=O)[*:2])N([*:1])C1; X19 = O=C(CCCCc1ccc(CCCCN[*:1])cc1)[*:2]; X4 = O=C(CCSCc1cccc(CSCCN[*:1])c1)[*:2]; mXylylene = c1cc(C[*:1])cc(C[*:2])c1; AEF = NCCOc1ccc(C[C@H](N)C(=O)O)cc1; d(aThr) = C[C@@H](O)[C@@H](N)C(=O)O; hPhe = N[C@@H](CCc1ccccc1)C(=O)O; αMeP = C[C@@]1(C(=O)O)CCCN1; Mpa = O=C(O)CCS

Sequence of PCSK9 (Q8NBP7 153-692): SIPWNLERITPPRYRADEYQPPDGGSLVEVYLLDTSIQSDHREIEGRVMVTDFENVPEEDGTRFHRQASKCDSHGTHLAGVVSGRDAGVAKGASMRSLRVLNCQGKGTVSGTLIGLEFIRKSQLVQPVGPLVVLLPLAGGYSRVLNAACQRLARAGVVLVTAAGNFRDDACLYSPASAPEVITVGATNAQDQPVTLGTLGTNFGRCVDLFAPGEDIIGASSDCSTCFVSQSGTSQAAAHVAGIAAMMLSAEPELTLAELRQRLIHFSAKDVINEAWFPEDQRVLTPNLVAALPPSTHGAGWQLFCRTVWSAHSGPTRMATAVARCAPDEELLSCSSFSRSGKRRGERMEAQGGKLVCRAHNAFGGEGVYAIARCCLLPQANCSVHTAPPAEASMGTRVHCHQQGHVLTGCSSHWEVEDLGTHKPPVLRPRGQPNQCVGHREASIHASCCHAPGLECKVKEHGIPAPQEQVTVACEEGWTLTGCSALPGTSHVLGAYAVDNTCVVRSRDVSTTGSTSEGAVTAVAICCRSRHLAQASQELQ
Sequence of human PCSK9 / human LDLR EGFa domain interaction (Q8NBP7 153-692): as above
Sequence of human PCSK9 / human LDLR EGFa domain interaction (Q8NBP7 31-152 partner): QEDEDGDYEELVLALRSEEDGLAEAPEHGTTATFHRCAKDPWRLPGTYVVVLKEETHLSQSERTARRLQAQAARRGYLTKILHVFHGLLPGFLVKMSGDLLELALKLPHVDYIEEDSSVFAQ

As for `CC(=O)N[C@H]1CC(=O)NCCOc2ccc(cc2)C[C@@H](C(N)=O)NC(=O)[C@]2(C)CCCN2C(=O)[C@H](Cc2ccc(O)cc2)NC(=O)[C@H](Cc2c[nH]cn2)NC(=O)[C@H](CC(=O)O)NC(=O)[C@H](Cc2c[nH]c3ccc(F)cc23)NC(=O)[C@H](Cc2c[nH]c3ccc(F)cc23)NC(=O)CNC(=O)[C@H](C)NC1=O` [Compound 310] (Ac-DAG[Trp(5-F)][Trp(5-F)]DHY[αMeP][AEF]-NH2; lactam 1-10), the IC50 (in test [1]; on PCSK9) was 1 to 12.1 µM throughout.
With `CC(=O)N[C@@H]1CCCCNC(=O)c2ccc(cc2)C[C@@H](C(N)=O)NC(=O)[C@]2(C)CCCN2C(=O)[C@H](Cc2ccc(O)cc2)NC(=O)[C@H](Cc2cnc[nH]2)NC(=O)[C@H](CC(=O)O)NC(=O)[C@H](Cc2c[nH]c3ccc(F)cc23)NC(=O)[C@H](Cc2c[nH]c3ccc(F)cc23)NC(=O)CNC1=O` [Compound 255] (Ac-[dK]G[Trp(5-F)][Trp(5-F)]DHY[αMeP][Phe(4-COOH)]-NH2; lactam 1-9), the IC50 (in test [1]; at PCSK9) was 0.1 to 1 µM each time.
With `COc1ccc(C[C@@H]2NC(=O)[C@@H]3CC/C=C\CO[C@H]4C[C@@H](C(=O)N3)N(C4)C(=O)[C@H](Cc3c[nH]c4ccc(F)cc34)NC(=O)[C@H](Cc3c[nH]c4ccc(F)cc34)NC(=O)[C@@H](C)NC(=O)[C@H](C)NC(=O)[C@@H](NC(C)=O)CC(=O)NCc3ccc(cc3)C[C@@H](C(=O)O)NC(=O)[C@]3(C)CCCN3C2=O)cc1` [Compound 514], the IC50 (in test [1]; at PCSK9) was 0.1 to 1 µM in each case.
With `NCCCC[C@@H]1NC(=O)CCSCc2cccc(c2)CSC[C@@H](C(N)=O)NC(=O)[C@@H]2CCCN2C(=O)[C@H](Cc2ccc(O)cc2)NC(=O)[C@H](Cc2c[nH]cn2)NC(=O)[C@H](CC(=O)O)NC(=O)[C@H](CCc2ccccc2)NC(=O)[C@H](Cc2c[nH]c3ccc(F)cc23)NC(=O)CNC1=O` [Compound 244] ([Mpa]KG[Trp(5-F)][hPhe]DHYPC-NH2; linker 1-10 via mXylylene), the IC50 (in test [1]; at PCSK9) was 0.1 to 1 µM throughout.
As to `C[C@H]1NC(=O)[C@H](C(C)(C)C(=O)O)NC(=O)[C@H](Cc2c[nH]c3ccc(F)cc23)NC(=O)[C@H](Cc2c[nH]c3ccc(F)cc23)NC(=O)CNC(=O)[C@H](CCCCN)NC(=O)CCSCc2cccc(c2)CSC[C@@H](C(N)=O)NC(=O)[C@]2(C)CCCN2C(=O)[C@H](Cc2ccc(O)cc2)NC1=O` [Compound 055] ([Mpa]KG[Trp(5-F)][Trp(5-F)][Asp(3,3-Me2)][dA]Y[αMeP]C-NH2; linker 1-10 via mXylylene), the values for the IC50 (in test [1]; on PCSK9) were 1 to 12.1 µM and 21 to 50 µM, respectively.
`CS[C@H]1C[C@H]2C(=O)N[C@H](C(N)=O)CSCc3cccc(c3)CSCCC(=O)N[C@@H](CCCCN)C(=O)NCC(=O)N[C@@H](Cc3c[nH]c4ccc(F)cc34)C(=O)N[C@@H](Cc3c[nH]c4ccc(F)cc34)C(=O)N[C@@H](CC(=O)O)C(=O)N[C@@H](Cc3cnc[nH]3)C(=O)N[C@@H](Cc3ccc(O)cc3)C(=O)N2C1` [Compound 363] ([Mpa]KG[Trp(5-F)][Trp(5-F)]DHY[X9]C-NH2; linker 1-10 via mXylylene): the IC50 is 0.0001 to 0.1 µM in test [1] and 0.1 to 1 µM at PCSK9.
With `COc1ccc(C[C@@H]2NC(=O)[C@@H]([C@@H](C)O)NC(=O)[C@H](CC(=O)O)NC(=O)[C@H](Cc3c[nH]c4ccc(F)cc34)NC(=O)[C@H](Cc3cccc(CN)c3)NC(=O)[C@@H](C)NC(=O)[C@H](C)NC(=O)CCSCc3cccc(c3)CSCCNC(=O)[C@]3(C)CCCN3C2=O)cc1` [Compound 384] (cyclo(A[dA][Phe(3-CH2NH2)][Trp(5-F)]D[d(aThr)]Y(Me)[αMeP][X4])), the IC50 (in test [1]; at PCSK9) was 21 to 50 µM throughout.
`COc1ccc(C[C@@H]2NC(=O)[C@H]([C@@H](C)OC)NC(=O)[C@@H]3CC/C=C/COc4cccc(c4)C[C@H](NC(=O)[C@@H](C)NC(=O)[C@H](C)NC(=O)CC[S+]([O-])Cc4cc(F)cc(c4)CSCCNC(=O)[C@]4(C)CCCN4C2=O)C(=O)N[C@@H](Cc2c[nH]c4ccc(F)cc24)C(=O)N3C)cc1` (stereo partly drawn) [Compound 507] (cyclo(A[dA][X25][Trp(5-F)][X42]T(Me)Y(Me)[αMeP][X43]); staple (E) 3-5): the results for the IC50 (in test [1]; on PCSK9) were 0.0001 to 0.1 µM and 0.00011 to 0.1 µM, respectively.
For the compound `C[C@@H]1NC(=O)CCCCc2ccc(cc2)CCCCNC(=O)C[C@@H](C(=O)N[C@@H](Cc2cnc[nH]2)C(=O)N[C@@H](Cc2ccc(O)cc2)C(=O)N2CCC[C@H]2C(N)=O)NC(=O)[C@H](Cc2c[nH]c3ccc(F)cc23)NC(=O)[C@H](Cc2c[nH]c3ccc(F)cc23)NC(=O)CNC1=O` [Compound 330] ([X19]AG[Trp(5-F)][Trp(5-F)]DHYP-NH2; lactam N-6), the results for the IC50 (in test [1]; at PCSK9) were 0.1 to 1 µM and 1 to 12.1 µM, respectively.

These data come from US11530244B2, “Cyclic polypeptides for PCSK9 inhibition” (priority 2018, dated 2022).
